Key:
[1] = molecular target: T1, human Sirt5 (Homo sapiens, UniProt Q9NXA8); test: HPLC-based assay, non-labelled succinyl-lysine peptide; type: biochemical; conditions: 200 μM, succinyl-lysine substrate
T1 construct: human Sirt5_34–302 (Uniprot: Q9NXA8); made in house
T1 sequence (Q9NXA8 34-302): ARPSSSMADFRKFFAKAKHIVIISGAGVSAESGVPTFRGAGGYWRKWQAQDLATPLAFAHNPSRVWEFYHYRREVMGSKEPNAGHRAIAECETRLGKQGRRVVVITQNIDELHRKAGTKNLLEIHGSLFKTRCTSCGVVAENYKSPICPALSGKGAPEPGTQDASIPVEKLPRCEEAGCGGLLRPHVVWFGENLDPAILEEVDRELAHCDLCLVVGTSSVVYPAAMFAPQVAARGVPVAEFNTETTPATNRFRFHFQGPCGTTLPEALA

[2] = molecular target: T2, human Sirt4 (Homo sapiens, UniProt Q9Y6E7); test: Sirt4-dependent deacetylation of acetylated Nnt397-peptide, LC-MS; type: biochemical; conditions: 200 μM, acetyl-lysine substrate
T2 construct: Human Sirt4_25–314 (Uniprot: Q9Y6E7); made in house
T2 sequence (Q9Y6E7 25-314): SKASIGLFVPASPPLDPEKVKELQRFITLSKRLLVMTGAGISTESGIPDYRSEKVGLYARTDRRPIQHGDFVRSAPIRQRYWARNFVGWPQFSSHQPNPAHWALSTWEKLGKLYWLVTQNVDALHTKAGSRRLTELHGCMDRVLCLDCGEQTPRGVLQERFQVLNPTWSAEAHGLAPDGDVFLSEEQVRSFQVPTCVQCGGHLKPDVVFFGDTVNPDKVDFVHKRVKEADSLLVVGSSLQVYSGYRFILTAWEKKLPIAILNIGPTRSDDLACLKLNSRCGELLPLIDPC
Protocol: Initial screens were conducted with a high-throughput fluorescence-based assay using the substrate ZMAL (Z-Lys(Acetyl)-AMC) that was synthesized according to published procedures. For this human Sirt1_133–747, human Sirt2_25–389, human Sirt3_101–399 or Sirt3_118–395 were mixed with assay buffer (50 mM Tris/HCl, 137 mM NaCl, 2.7 mM KCl, 1 mM MgCl2, pH 8.0), β-NAD^+ (final assay concentration 500 μM), the substrate ZMAL (final assay concentration 10.5 μM from a 12.6 mM stock solution in DMSO) and the respective inhibitor in DMSO at various concentrations or DMSO as a control (final DMSO concentration 5–20% (v/v)). The mixture was incubated at 37 °C for 4 h, with agitation at 150 r.p.m. […] Then the fluorescence intensity was measured in a microplate reader (BMG Polarstar, λex 390 nm, λem 460 nm). The amount of inhibition was determined with respect to the mixture with only DMSO. IC50 values were determined with Graphpad Prism software using a non-linear regression to fit the dose–response curve. […] Peaks of acetylated and deacetylated substrate were quantified by absorption at 280 nm. […] The samples were then diluted to a peptide concentration of 5 μM with 0.1% (v/v) formic acid and analysed on an EASY-nLCII connected to a LTQ mass spectrometer (Thermo Fisher Scientific). […]

## Cc1cc(C)nc(SCC(=O)Nc2ncc(Cc3cccc4ccccc34)s2)n1 [SirReal2]
[1]
  effect on activity of Sirt5: very little effect
[2]
  effect on activity of Sirt4: very little effect

— publication PMC4339887, “Selective Sirt2 inhibition by ligand-induced rearrangement of the active site” (Nature Communications, 2015)
